From patent US20050080076A1 (Xanodyne Pharmacal, Inc., priority 2003, published 2005)

Columns and labels:
Type in all cases: in vitro ADME
[1] = system: Primary human hepatocytes; experiment: In vitro metabolism in primary human hepatocytes
[2] = system: human colon carcinoma cell line (CACO-2 Model); experiment: Intestinal absorption assay (CACO-2 Model)
P-glycoprotein (p-gp) = molecular target: T1, P-glycoprotein (p-gp) (Homo sapiens, UniProt P08183); experiment: P-glycoprotein efflux in CACO-2 Model
T1 construct: using a human colon carcinoma cell line (CACO-2 Model); endogenous in cells; host or cells: CACO-2 (human colon carcinoma cell line)
T1 sequence (P08183 whole entry): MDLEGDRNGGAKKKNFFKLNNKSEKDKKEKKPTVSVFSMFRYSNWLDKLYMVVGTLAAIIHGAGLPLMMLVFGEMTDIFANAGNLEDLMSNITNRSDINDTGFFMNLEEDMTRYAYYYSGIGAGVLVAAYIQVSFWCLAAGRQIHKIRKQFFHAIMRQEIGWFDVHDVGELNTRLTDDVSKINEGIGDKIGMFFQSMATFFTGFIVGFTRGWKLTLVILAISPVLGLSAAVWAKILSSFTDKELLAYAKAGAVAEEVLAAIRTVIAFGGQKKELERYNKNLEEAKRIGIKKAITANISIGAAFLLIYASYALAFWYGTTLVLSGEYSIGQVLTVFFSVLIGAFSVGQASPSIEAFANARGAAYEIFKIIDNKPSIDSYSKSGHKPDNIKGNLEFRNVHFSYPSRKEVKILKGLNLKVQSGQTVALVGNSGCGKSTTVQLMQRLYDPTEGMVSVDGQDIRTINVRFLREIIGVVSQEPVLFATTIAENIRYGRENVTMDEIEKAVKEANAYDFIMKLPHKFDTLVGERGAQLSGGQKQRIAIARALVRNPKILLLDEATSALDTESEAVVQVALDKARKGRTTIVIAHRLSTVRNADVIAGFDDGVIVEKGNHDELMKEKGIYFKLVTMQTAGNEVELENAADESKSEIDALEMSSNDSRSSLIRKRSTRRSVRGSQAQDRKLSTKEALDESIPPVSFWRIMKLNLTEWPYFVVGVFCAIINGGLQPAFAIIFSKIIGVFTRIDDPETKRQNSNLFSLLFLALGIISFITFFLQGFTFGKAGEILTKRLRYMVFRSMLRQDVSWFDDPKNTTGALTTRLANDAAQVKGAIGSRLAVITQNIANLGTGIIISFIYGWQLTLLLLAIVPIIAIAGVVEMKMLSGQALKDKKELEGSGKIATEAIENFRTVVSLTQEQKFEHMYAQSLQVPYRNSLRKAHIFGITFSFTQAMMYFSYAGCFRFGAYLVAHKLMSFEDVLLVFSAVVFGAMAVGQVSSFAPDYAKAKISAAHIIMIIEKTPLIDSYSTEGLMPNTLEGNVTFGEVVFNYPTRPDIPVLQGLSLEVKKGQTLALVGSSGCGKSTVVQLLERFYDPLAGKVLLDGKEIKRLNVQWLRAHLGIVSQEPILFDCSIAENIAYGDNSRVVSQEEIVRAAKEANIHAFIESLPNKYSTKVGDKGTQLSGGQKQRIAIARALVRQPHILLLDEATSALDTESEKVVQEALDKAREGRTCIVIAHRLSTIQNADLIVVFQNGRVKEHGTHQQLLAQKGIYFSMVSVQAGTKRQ

SMILES: CNCC(C)CN1c2ccccc2Sc2ccc(OC)cc21 (stereo not drawn) [NDM LMP, R(+) 2-methoxy-10-2-methyl-3-monomethylaminopropyl phenothiazine]
- Phase I biotransformation [1]: metabolized to only one putative primary amine metabolite
- Phase II biotransformation (conjugation) [1]: did not appear to undergo any Phase II biotransformation
- metabolic stability relative to LMP [1]: much more metabolically stable than its LMP parent compound
- sulfoxide metabolite formation [1]: no detectable sulfoxide metabolites were formed
- apical to basolateral permeability coefficient relative to parent LMP [2]: 1.5 fold
- gut wall (enterocyte) metabolism relative to parent LMP [2]: occurs to a lower extent
- percent recovered through the system relative to parent LMP [2]: 1.5-2.0 fold
- transport by P-glycoprotein relative to parent LMP (P-glycoprotein (p-gp)): to a lesser degree than the parent LMP
- inhibition of efflux relative to parent LMP (P-glycoprotein (p-gp); in the presence of p-gp inhibitor verapamil): at least one-half lower
- relative efflux to influx ratio, reduction versus parent LMP (P-glycoprotein (p-gp); through the enterocyte, less than parent LMP): at least 50%
